# Measured values as given in patent publication US20140242551A1, “Oral Care System and Method” (priority 2013, published 2014).
# Columns and labels:
# [1] = test system: Aggregatibacter actinomycetemcomitans; assay: standard Minimum Inhibitory Concentration test; type: cell-based; settings: 18 to 24 hour test; CD at 37 parts per million, active for only three minutes
# Description: (§1) FIG. 8 is an exemplary table of comparative laboratory test results illustrating Minimum Inhibitor Concentration of CD at a concentration of 37 parts per million versus Chlorhexidine (CHX) in effectiveness to destroy bacteria and yeast.
# (§2) FIG. 8 is an exemplary table listing the comparative results of an 18 to 24 hour standard Minimum Inhibitory Concentration test of a chlorhexidine oral rinse solutions' effectiveness in inhibiting growth of bacteria typically found in the oral cavity, and during dental procedures. More specifically, under controlled test conditions of the University of Iowa College of Dentistry, May 15, 2012, a CD rinse solution was tested against and compared to the chlorhexidine (CHX) as shown.
# (§3) It should be noted that even when CHX outperformed CD, or performed as well as CD but at lower concentrations, it did so after continuously acting upon the bacteria for a continuous period of 18 to 24 hours; CD on the other hand while the CD tested had been active for only three minutes, yet remarkably continued to inhibit growth for the subsequent testing time period.
# [2] = test system: bacteria typically found in the oral cavity; assay: standard Minimum Inhibitory Concentration test, other listed bacteria; type: cell-based; settings: 18 to 24 hour MIC test
# Description: as §1, §2, §3
# [3] = in-vitro test of oral rinses' ability to destroy or reduce microbial VSC toxins; settings: 30 second exposure
# Description: FIG. 7 is an exemplary table of comparative laboratory text results, and a corresponding graphical representation of the average reduction in […] of each compound listed in the table.
# FIG. 7 is an exemplary table of comparative laboratory text results, and a corresponding graphical representation of the average reduction in Volatile Sulfur Compounds of each compound listed in the table. More specifically, the table data and corresponding chart presents the results of controlled laboratory tests conducted on Aug. 11, 2012. The in-vitro tests simulated actual patient-use conditions anticipated in root canal and periodontal procedures. The measurements compare oral rinses based on their ability to destroy or reduce microbial VSC toxins after a 30 second exposure. The tests were completed for a variety of toxins including those produced by Porphyromonas gingivalis, Prevotella intermedia, Tannerella forsythia, Treponema socranskii, and Streptococcus mitis, all of which are routinely present in the oral cavity during periodontal and endodontic procedures.
# [4] = test system: Listeria, E. Coli, Pseudomonas, Salmonella, Staphylococcus, Streptococcus and others; settings: within 30-60 seconds; cited from earlier work
# [5] = in humans, including rare cases of anaphylactic shock; cited from earlier work
Compound,"Minimum Inhibitory Concentration, as dilution of rinse inhibiting growth [1]",growth inhibition compared with CHX (result in words) [2],microbial toxins destroyed (reduction in Volatile Sulfur Compounds) [3],log reduction [4],reduction [4],toxin reduction (result in words) [3],incidence of hypersensitivity reactions [5]
"[O][Cl+][O-] [CD, chlorine dioxide]",1/32,equally well or slightly less well than CHX,100%,5 log,99.999%,,
"[H]/N=C(\N/C(=N/[H])NCCCCCCNC(=N)NC(=N)Nc1ccc(Cl)cc1)Nc1ccc(Cl)cc1 [Chlorhexidine, reference compound]",⅛,,,,,statistically nonsignificant drops,2%
